The subject of series [1] is Caco-2:HT29-MTX E12 coculture tubules. Briefly: Live cell imaging of cellular uptake and intracellular localization in coculture tubules. Type of series: cell-based, human. As for the experimental part: Spinning disc (SD) confocal microscopy was performed on a Nikon Ti2 inverted microscope equipped with a Yokogawa CSU-W1 module and a Photometrics Prime 95B sCMOS camera was used for all experiments (excl. Image-based TAT transport). The set-up includes four excitation lasers 405/488/561/638 nm with 442/42, 520/28 BrightLine HC filters and 600/50 ET, 700/75 ET bandpass filters. For this work, a set of CFI Plan Apochromat Lambda objectives were used: ×4/0.2, 20x/0.75, 60x/1.4 and 100x/1.45. For image-based transport experiments, epi-fluorescence microscopy was performed using a Nikon Eclipse Ti2 microscope equipped with an LED source (CoolLED), a dual-band filter cube (AHF, Excitation 455–489 nm, 557–588 nm; Emission 506–542 nm, 605–660 nm) and a Photometrics Evolve 512 electron-multiplying charge-coupled device camera was used (10x N.A. 0.30).
Here, the cells were counterstained with Hoechst (H1399, Thermo Fischer, 10 μg ml^−1) and incubated for 1 h at 37°C, 5% CO2, washed with PBS and images were acquired using SD confocal microscopy with 488 nm laser and 520/28 BrightLine HC filters for detecting FITC-labelled TAT and the 405 nm laser and 442/42 BrightLine HC filter for acquiring Hoechst. […] The transport of TAT was tracked over 2 h, acquiring time lapse images every 30 s using epi-fluorescence microscopy (see Imaging modalities). […]

Series [2] has the same test system. Briefly: Barrier integrity monitored by co-applied TRITC-dextran (TD) during peptide transport. Type of series: cell-based, human. To be noted: INS chips with and without TAT. As for the experimental part:
Here, the cells were counterstained with Hoechst (H1399, Thermo Fischer, 10 μg ml^−1) and incubated for 1 h at 37°C, 5% CO2, washed with PBS and images were acquired using SD confocal microscopy with 488 nm laser and 520/28 BrightLine HC filters for detecting FITC-labelled TAT and the 405 nm laser and 442/42 BrightLine HC filter for acquiring Hoechst. The cell tubules exposed to TAT/INS (24 µM/50 μM, IS1-AF647-1, Nanocs) were stained with above mentioned cellular dyes and CellMask-green (C37608, Thermo Fisher, 1:500) for 30 min on ice after 3 h of incubation. The transport of TAT was tracked over 2 h, acquiring time lapse images every 30 s using epi-fluorescence microscopy (see Imaging modalities). […] To simultaneously monitor the barrier integrity TD (0.5 mg ml^−1) was co-applied to the chips and measured in parallel to TAT. For the quantification of both TAT, INS and TD transport across the cell barrier, calibration curves were established. […]
Next we used the platform to study the barrier transport kinetics of TAT. We performed whole-chip real-time live cell imaging, to quantify the concentration of TAT transported across the coculture cell layer and reaching the receiving channel (Figure 6B). […] Both the FITC and TRITC channels were recorded for each tubular system every 30 s for a total of 2.5 h. […]

The test system is the same in series [3]. Briefly: Image-based real-time quantification of TAT and TAT/INS transport across coculture tubules. To be noted: 50 µM INS, whether or not TAT (24 µM) was present, over 3 h, n = 3.
Method: We performed whole-chip real-time live cell imaging, to quantify the concentration of TAT transported across the coculture cell layer and reaching the receiving channel (Figure 6B). […] Both the FITC and TRITC channels were recorded for each tubular system every 30 s for a total of 2.5 h. […] A calibration experiment where known concentrations of TAT or TD were added to a chip without cells allowed us to convert the measured intensities to actual concentration in μM and mg mL^−1 respectively (Supplementary Figure S5). […]

These results are taken from paper PMC9500407, “Quantifying the transport of biologics across intestinal barrier models in real-time by fluorescent imaging” (Frontiers in Bioengineering and Biotechnology, 2022).

“INS: AlexaFluor647-labeled insulin (IS1-AF647-1, Nanocs)”: the “Intracellular localization of INS” value in series [1] (INS and INS/TAT, 3 h, 100x, indicating endosomal uptake) is recorded as “localized inside the cytosol in punctual patterns”. For the same substance, the “Cellular internalization of INS” value in series [1] (after 3 h, live cell imaging, with and without TAT) is “internalized into the enterocyte cell layer even without TAT”. Further, the Barrier integrity result in series [2] is “not compromised significantly”. The “INS transport across the cell barrier” value in series [3] is recorded as “no INS transport across the cell barrier”.
